Data as given in ChEMBL document CHEMBL1201862, “PubChem BioAssay data set” (2004).
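How tested: cells in 96-well plates exposed to compound for 48 hours at five concentrations. Here, GI50 denotes the concentration required for 50% inhibition of growth.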 Activity calls are given as the source filed them. Cut-off read from the data, not from the text of the source: active = GI50 up to about 1.1 µM and inactive = higher.

Tests used:
Test in all cases: NCI-60 cell line screen, 48 h
RPMI-8226 = tested on: RPMI-8226
OVCAR-5 = tested on: OVCAR-5
LXFL 529 = tested on: LXFL 529
MOLT-4 = tested on: MOLT-4
M19-MEL = tested on: M19-MEL
SF-295 = tested on: SF-295
RXF 393 = tested on: RXF 393
NCI-H522 = tested on: NCI-H522
HCC 2998 = tested on: HCC 2998
CAKI-1 = tested on: CAKI-1
SF-539 = tested on: SF-539
786-0 = tested on: 786-0
OVCAR-4 = tested on: OVCAR-4
UACC-62 = tested on: UACC-62
HCT-116 = tested on: HCT-116
Malme-3M = tested on: Malme-3M
MDA-MB-231 = tested on: MDA-MB-231
PC-3 = tested on: PC-3
DU-145 = tested on: DU-145

SMILES | GI50 (RPMI-8226) | GI50 (OVCAR-5) | GI50 (LXFL 529) | GI50 (MOLT-4) | GI50 (M19-MEL) | GI50 (SF-295) | GI50 (RXF 393) | GI50 (NCI-H522) | GI50 (HCC 2998) | GI50 (CAKI-1) | GI50 (SF-539) | GI50 (786-0) | GI50 (OVCAR-4) | GI50 (UACC-62) | GI50 (HCT-116) | GI50 (Malme-3M) | GI50 (MDA-MB-231) | GI50 (PC-3) | GI50 (DU-145)
C[S+](C)CCOC(=O)C(=[N+]=[N-])c1ccc([N+](=O)[O-])cc1 | > 100 µM (inactive) | > 100 µM (inactive) | > 100 µM (inactive) | > 100 µM (inactive) | > 100 µM (inactive) | > 100 µM (inactive) | > 100 µM (inactive) | > 100 µM (inactive) | > 100 µM (inactive) | > 100 µM (inactive) | > 100 µM (inactive) | > 100 µM (inactive) | > 100 µM (inactive) | > 100 µM (inactive) | > 100 µM (inactive) | > 100 µM (inactive) | – | – | –
Cc1ccccc1-c1c(N)nc(NC#N)nc1C(=O)Nc1ccccc1 | > 100 µM (inactive) | > 100 µM (inactive) | 67.1 µM (inactive) | > 100 µM (inactive) | > 100 µM (inactive) | > 100 µM (inactive) | > 100 µM (inactive) | – | > 100 µM (inactive) | > 100 µM (inactive) | > 100 µM (inactive) | > 100 µM (inactive) | > 100 µM (inactive) | > 100 µM (inactive) | > 100 µM (inactive) | > 100 µM (inactive) | – | – | –
CCOC(=O)c1nc2ccc(Cl)cc2c2c1CCO2 | – | > 100 µM (inactive) | 51.4 µM (inactive) | 53.5 µM (inactive) | > 100 µM (inactive) | > 100 µM (inactive) | 41.5 µM (inactive) | 34.7 µM (inactive) | > 100 µM (inactive) | 51.8 µM (inactive) | 95.1 µM (inactive) | > 100 µM (inactive) | 70.1 µM (inactive) | 87.7 µM (inactive) | 57 µM (inactive) | > 100 µM (inactive) | – | – | –
CCCN(CCCN)/[N+]([O-])=N\O | > 100 µM (inactive) | > 100 µM (inactive) | > 100 µM (inactive) | > 100 µM (inactive) | > 100 µM (inactive) | > 100 µM (inactive) | > 100 µM (inactive) | > 100 µM (inactive) | > 100 µM (inactive) | > 100 µM (inactive) | > 100 µM (inactive) | > 100 µM (inactive) | > 100 µM (inactive) | 0.195 µM (active) | > 100 µM (inactive) | > 100 µM (inactive) | – | – | –
CC1=C(C(=O)Nc2cccc(C(F)(F)F)c2)C(c2ccc(O)cc2)C(C(=O)Nc2cccc(C(F)(F)F)c2)=C(C)N1 | 7.35 µM (inactive) | 24.9 µM (inactive) | 18.6 µM (inactive) | 7.98 µM (inactive) | 16.4 µM (inactive) | 20.5 µM (inactive) | 10.1 µM (inactive) | 15.5 µM (inactive) | 17.3 µM (inactive) | 11.6 µM (inactive) | 26.5 µM (inactive) | 16.7 µM (inactive) | 14.8 µM (inactive) | – | 14.6 µM (inactive) | 25.8 µM (inactive) | – | – | –
CCc1c(Cc2[nH]c(Cc3[nH]c(C=O)c(C)c3CC)c(CC)c2CC)[nH]c(C=O)c1C | > 100 µM (inactive) | – | > 100 µM (inactive) | > 100 µM (inactive) | > 100 µM (inactive) | > 100 µM (inactive) | 39 µM (inactive) | > 100 µM (inactive) | > 100 µM (inactive) | > 100 µM (inactive) | > 100 µM (inactive) | > 100 µM (inactive) | – | > 100 µM (inactive) | > 100 µM (inactive) | > 100 µM (inactive) | – | – | –
COC(=O)Cc1cc(=O)oc2c1C(=O)CCC2 | > 100 µM (inactive) | > 100 µM (inactive) | > 100 µM (inactive) | > 100 µM (inactive) | > 100 µM (inactive) | > 100 µM (inactive) | > 100 µM (inactive) | > 100 µM (inactive) | > 100 µM (inactive) | > 100 µM (inactive) | > 100 µM (inactive) | > 100 µM (inactive) | > 100 µM (inactive) | > 100 µM (inactive) | > 100 µM (inactive) | > 100 µM (inactive) | – | – | –
CCN(N=O)C1C2(CCCC2)NC(=O)C12CCCC2 (stereo unspecified) | > 100 µM (inactive) | > 100 µM (inactive) | > 100 µM (inactive) | > 100 µM (inactive) | > 100 µM (inactive) | > 100 µM (inactive) | > 100 µM (inactive) | – | > 100 µM (inactive) | – | > 100 µM (inactive) | > 100 µM (inactive) | > 100 µM (inactive) | > 100 µM (inactive) | > 100 µM (inactive) | > 100 µM (inactive) | – | – | –
Nc1cc(O)nc(SC2=NC(N)CC(O)C2)n1 (stereo unspecified) | > 100 µM (inactive) | > 100 µM (inactive) | > 100 µM (inactive) | > 100 µM (inactive) | > 100 µM (inactive) | > 100 µM (inactive) | – | > 100 µM (inactive) | > 100 µM (inactive) | > 100 µM (inactive) | > 100 µM (inactive) | > 100 µM (inactive) | > 100 µM (inactive) | > 100 µM (inactive) | – | > 100 µM (inactive) | – | – | –
O=C1c2ccccc2C(=O)c2sc(Nc3ccc([N+](=O)[O-])cc3)nc21 | 2.35 µM (inactive) | 13.7 µM (inactive) | 1.66 µM (inactive) | 1.92 µM (inactive) | 1.55 µM (inactive) | 11.8 µM (inactive) | 5.16 µM (inactive) | 2.55 µM (inactive) | 16 µM (inactive) | 4.25 µM (inactive) | 7.91 µM (inactive) | 5.27 µM (inactive) | 4.4 µM (inactive) | 3.08 µM (inactive) | 6.62 µM (inactive) | 6.25 µM (inactive) | 2.3 µM (inactive) | 7.38 µM (inactive) | 19.2 µM (inactive)
CC(=O)C1C(=O)N(C(C)C)C[C@@H]2CCC(=O)C[C@H]12 (stereo partly specified) | > 100 µM (inactive) | – | > 100 µM (inactive) | > 100 µM (inactive) | > 100 µM (inactive) | > 100 µM (inactive) | > 100 µM (inactive) | > 100 µM (inactive) | > 100 µM (inactive) | > 100 µM (inactive) | > 100 µM (inactive) | > 100 µM (inactive) | > 100 µM (inactive) | > 100 µM (inactive) | > 100 µM (inactive) | > 100 µM (inactive) | – | – | –
Cc1ccc2c(C)c3ccc4ccccc4c3c[n+]2c1.[O-][Cl+3]([O-])([O-])[O-] | 16.6 µM (inactive) | 51.3 µM (inactive) | 9.1 µM (inactive) | 3.99 µM (inactive) | 4.88 µM (inactive) | 23.1 µM (inactive) | 20.1 µM (inactive) | 11.2 µM (inactive) | 12.9 µM (inactive) | 23.9 µM (inactive) | 11.5 µM (inactive) | 9.18 µM (inactive) | 16 µM (inactive) | 13.7 µM (inactive) | 27.5 µM (inactive) | 2.88 µM (inactive) | – | – | –
CCOc1ccc2c(c1)[n+]([O-])c(-c1nc3ccccc3s1)c(N)[n+]2[O-] | 44.3 µM (inactive) | > 100 µM (inactive) | 37.4 µM (inactive) | 36.7 µM (inactive) | > 100 µM (inactive) | 50 µM (inactive) | – | 21.6 µM (inactive) | 96.6 µM (inactive) | 83.4 µM (inactive) | 43.1 µM (inactive) | 48.4 µM (inactive) | 65.5 µM (inactive) | 64.7 µM (inactive) | – | > 100 µM (inactive) | – | – | –
COC1(OC)C(N(C)C)=C(Cl)C(=O)/C1=C/C=O | 61 µM (inactive) | > 100 µM (inactive) | > 100 µM (inactive) | > 100 µM (inactive) | 74.6 µM (inactive) | > 100 µM (inactive) | – | – | > 100 µM (inactive) | > 100 µM (inactive) | – | > 100 µM (inactive) | > 100 µM (inactive) | 40 µM (inactive) | > 100 µM (inactive) | > 100 µM (inactive) | – | – | –
COc1cc(O)c2c(c1)C(=O)C1=C(C2=O)C(O)C[C@@](C)(O)C1 (stereo partly specified) | 1.86 µM (inactive) | 9.95 µM (inactive) | 0.582 µM (active) | 2.22 µM (inactive) | 0.452 µM (active) | 2.58 µM (inactive) | 1.32 µM (inactive) | 0.71 µM (active) | 1.47 µM (inactive) | 1.87 µM (inactive) | 2.57 µM (inactive) | 3.08 µM (inactive) | 1.51 µM (inactive) | 1.37 µM (inactive) | 0.445 µM (active) | 0.557 µM (active) | – | – | –
C=CNC(=O)NC(=O)CSc1nc(=O)c(-c2ccccc2NC(=O)C(F)(F)F)n[nH]1 | – | > 100 µM (inactive) | > 100 µM (inactive) | > 100 µM (inactive) | > 100 µM (inactive) | 50 µM (inactive) | > 100 µM (inactive) | 51.6 µM (inactive) | > 100 µM (inactive) | > 100 µM (inactive) | 74.6 µM (inactive) | 51.2 µM (inactive) | – | > 100 µM (inactive) | > 100 µM (inactive) | 15.5 µM (inactive) | – | – | –
Cc1c(C(=O)/C=C/c2c(Cl)cccc2Cl)c(=O)n(-c2ccccc2)n1C | – | 71.8 µM (inactive) | 5.47 µM (inactive) | 5.38 µM (inactive) | 8.55 µM (inactive) | 26 µM (inactive) | 5.79 µM (inactive) | 12.8 µM (inactive) | 23 µM (inactive) | 19 µM (inactive) | > 10 µM (inactive) | 11.1 µM (inactive) | – | 21.6 µM (inactive) | 8.53 µM (inactive) | 53.8 µM (inactive) | – | – | –
CC(C)(C)c1cc(C(P(=O)(O)O)P(=O)(O)O)cc(C(C)(C)C)c1O | > 100 µM (inactive) | > 100 µM (inactive) | > 100 µM (inactive) | > 100 µM (inactive) | > 100 µM (inactive) | > 100 µM (inactive) | – | > 100 µM (inactive) | > 100 µM (inactive) | > 100 µM (inactive) | > 100 µM (inactive) | > 100 µM (inactive) | > 100 µM (inactive) | > 100 µM (inactive) | > 100 µM (inactive) | > 10 µM (inactive) | – | – | –
